Reference: patent publication US12351819B2, “Method for removing undifferentiated pluripotent stem cells” (priority 2017, dated 2025)

How the values were obtained:
hESCs (H9) = conditions: for cytotoxic effect (LDH release) in hESCs: 2.5 μM, 24 hours, vs DMSO; for LDH assay positive, hESCs: Table 1
Procedure: (§1) The hESC line H9 was purchased from WiCells (Madison, WI, USA)^27. Another hESC line, HUES6, was kindly provided by Dr. Douglas A. Melton (Harvard University, Boston, MA, USA)^28. Cells were maintained on the feeder cells and cultured in Dulbecco's modified Eagle's medium (DMEM)/F12 supplemented with 20% knockout serum replacement, 2 mM L-glutamine, 1% nonessential amino acids, 4 ng/mL human bFGF, and 0.1 mM 2-mercaptoethanol. For the feeder cells culture, C57BL/6 mouse embryonic fibroblasts (MEF) were cultured in the DMEM with 10% FBS and treated cells with 0.01 mg/ml mitomycin C 2-6 hours for inactivation. For the feeder-free culture, hESCs were seeded on the Matrigel Matrix (BD Biosciences, San Jose, CA, USA) coated culture plates and maintained by conditioned medium of MEF (C57BL/6). hBMMSCs were cultured in mesenPRO RS™ kit (Life Technologies, Camarillo, CA, USA). All cells were cultured in a humidified atmosphere containing 5% CO2 at 37° C.
(§2) The supernatants of cells treated with digoxin […], lanatoside C 2.5 μm, or DMSO solvent control for 24 hours were harvested. The released LDH was measured using CytoTox 96 […] assay according to the manufacture's instruction (Promega, Southampton, UK). The supernatants and reagents were incubated at room temperature for 20 minutes and then the reaction was stopped by Stop Solution. The absorbance at 490 nm was measured using a plate-reading spectrophotometer (Benchmark Plus Microplate Spectrophotometer System, BIO-RAD, CA, USA).

[1] = system: human bone marrow mesenchymal stem cells (hBMMSCs); conditions: 2.5 μM, 24 hours, vs DMSO
Procedure: as §1, §2

H9 hESC-MSCs = conditions: 2.5 μM, 24 hours
Procedure: as §2
According to the report from Dr. Xu and colleagues^30, hESCs were cultured with 10 ng/ml BMP4 and 1 μM of A8301 for 5 days. Next, the cells were passaged on the gelatin-coated plate and the culture medium was switched to MSC culture medium [Minimum Essential Medium Eagle Alpha Modification (αMEM) medium supplemented with 20% fetal bovine serum (FBS), 1-glutamine (Gluta-MAX), 1× nonessential amino acids]. Cells were expanded within passage 5, and CD73^+ (11-0793, ThermoFisher Scientific) and CD105^+ (12-1057, ThermoFisher Scientific) double positive cells were sorted.
hESC-derived MSCs were trypsinized and washed with PBS. Then cells were incubated with anti-human CD73 FITC (ThermoFisher Scientific) and anti-human CD105 PE (ThermoFisher Scientific) for 15 minutes at 4° C. Cells were washed cells with PBS for three times. CD73^+/CD105^+ cells were sorted with the cell sorter (BD FACSAria II, BD Biosciences). Sorted cells were maintained in MSC culture medium.

hiPSCs = conditions: for cytotoxicity (LDH release) in hiPSCs: 2.5 μM, 24 hours; for LDH assay positive, hiPSCs: Table 1
Procedure: as §2
hiPSC-derived endothelial cells were prepared according in a previous report^34. The hiPSCs were maintained in mTeSR 1 medium ([…] Technologies, Vancouver, Canada) on VTN-N coated plates (Thermo, Wilmington, DE, USA). First, for the stepwise induction of differentiation, we performed a mesoderm induction of hiPSCs seeded in mesoderm induction medium for 48 hours (basal medium with […], […], and 2 ng/ml of Activin A; basal medium was composed of 12 g/L of DMEM/F-12, 3.56 g/L of HEPES, 1.742 g/L of sodium bicarbonate, 14 μg/L of sodium selenite, 10.7 mg/L of recombinant transferrin, 19.4 mg/L of recombinant insulin, and 64 mg/L of L-Ascorbic acid 2-phosphate sesquimagnesium salt hydrate). Second, for the mesoderm to endothelium transition, mesoderm cells were reseeded in vasculogenic medium (basal medium with 2 mg/ml of PVA plus 20 ng/ml of hVEGF-A) for an additional 72 hours. All differentiated cells were plated on VTN pre-coated culture plate dishes. The endothelial cells were analyzed on day 5 by flow cytometry staining with the CD31 (PECAM1, ThermoFisher Scientific, Wilmington, DE, USA) and CD144 (CDH5, ThermoFisher Scientific) antibodies.

[2] = system: hiPSC-derived endothelial cells; assay: LDH cytotoxicity assay in hiPSC-derived endothelial cells; format: cell-based, human; conditions: 2.5 μM, 24 hours
Procedure: The released LDH was measured using CytoTox 96 Non-Cytotoxicity assay according to the manufacture's instruction (Promega, Southampton, UK). The supernatants and reagents were incubated at room temperature for 20 minutes and then the reaction was stopped by Stop Solution. The absorbance at 490 nm was measured using a plate-reading spectrophotometer (Benchmark Plus Microplate Spectrophotometer System, BIO-RAD, CA, USA).

HUES6 hESCs = assay: Cell colony and morphology under bright field, HUES6; format: cell-based, human; conditions: 2.5 μM, 12 hours and 24 hours
Text: Cells became round and died. […] Data are shown as the mean SD.

hBMMSCs [3] = assay: Cell morphology under bright field, hBMMSCs; format: cell-based, human; conditions: 2.5 μM, 12 hours and 24 hours
Text: Scale bar: 500 μm. […] The samples were normalized to the DMSO-treated hESCs. ***P<0.001; **P<0.01; n.s. not significant. Data are shown as the mean SD.

hESCs = assay: Alamar blue assay, hESCs; format: cell-based, human; conditions: FIG. 12
Procedure: Alamar blue assay measured the relative cell number. In the cells, we added 1/10 of Alamar Blue Viability Assay reagent to the total volume of the mixture (Biotium; Fremont, CA, USA). The cells were incubated overnight at 37° C. The resulted were quantified by the measurement of optical density (OD) absorbance values at 570 nm and 600 nm, and the relative cell number was calculated.

hBMMSCs [4] = assay: Chondrogenic induction and Alcian blue assay; format: cell-based, human; conditions: 2.5 μM 24 hours, drug removed; Alcian blue O.D 650 nm
Procedure: Next, drugs were removed, and 1×10^5 cells were seeded in 96-well U-bottom culture plated. After 24 hours, we changed the complete MSCgo™ Chondrogenic medium (Biological Industries) for 21 days. The media were changed every 3-4 days. Next, the pelleted cells were fixed with 4% formaldehyde for 1 hours, washed twice with ddH2O, and stained with a 1% Alcian blue solution in 0.1N HCl for 30 min. For Alcian Blue elution, we added […] Guanidine HCL solution and incubated overnight at RT. The absorbance at 650 nm was detected.

| SMILES | cytotoxic effect (LDH release) in hESCs (hESCs (H9)) | LDH assay positive, hESCs (hESCs (H9)) | cytotoxic effect (LDH release) in hBMMSCs [1] | cytotoxicity (LDH release) in H9 hESC-MSCs (H9 hESC-MSCs) | cytotoxicity (LDH release) in hiPSCs (hiPSCs) | LDH assay positive, hiPSCs (hiPSCs) | survival of hiPSC-derived endothelial cells (LDH release) [2] | cell death (bright field morphology) in HUES6 (HUES6 hESCs) | survival of hBMMSCs (bright field morphology) (hBMMSCs [3]) | cell death in hESCs (Alamar blue, relative cell number) (hESCs) | differentiation ability of hBMMSCs into chondrocytes (hBMMSCs [4]) |
| --- | --- | --- | --- | --- | --- | --- | --- | --- | --- | --- | --- |
| CC(=O)O[C@H]1C[C@H](O[C@H]2[C@@H](O)C[C@H](O[C@H]3[C@@H](O)C[C@H](O[C@H]4CC[C@@]5(C)[C@H](CC[C@@H]6[C@@H]5C[C@@H](O)[C@]5(C)[C@@H](C7=CC(=O)OC7)CC[C@]65O)C4)O[C@@H]3C)O[C@@H]2C)O[C@H](C)[C@H]1O[C@@H]1O[C@H](CO)[C@@H](O)[C@H](O)[C@H]1O [Lanatoside C, lanatoside C] | significantly induced a cytotoxic effect | +++ (more than 70% positive cells) | no cytotoxic effects | Neither Digoxin nor lanatoside C affected the survival | induced cytotoxicity | +++ (more than 70% positive cells) | remained alive | induced cell death | did not affect the survival | dose dependent manner | neither digoxin nor lanatoside C affected the differentiation ability |
| C[C@H]1O[C@@H](O[C@H]2[C@@H](O)C[C@H](O[C@H]3[C@@H](O)C[C@H](O[C@H]4CC[C@@]5(C)[C@H](CC[C@@H]6[C@@H]5C[C@@H](O)[C@]5(C)[C@@H](C7=CC(=O)OC7)CC[C@]65O)C4)O[C@@H]3C)O[C@@H]2C)C[C@H](O)[C@@H]1O [Digoxin, digoxin] | significantly induced a cytotoxic effect | +++ (more than 70% positive cells) | no cytotoxic effects | Neither Digoxin nor lanatoside C affected the survival | induced cytotoxicity | +++ (more than 70% positive cells) | remained alive | induced cell death | did not affect the survival | dose dependent manner | neither digoxin nor lanatoside C affected the differentiation ability |
